# Results reported in patent publication US20050010123A1, “Process for measuring QT intervals and constructing composite histograms to compare groups” (priority 2003, published 2005).
# Assay: Beat-to-beat QTc interval histograms from 24-hour ambulatory ECG (Holter) recordings
# Assay type: in vivo, patients
# From the text: An example of this type of device is a Reynolds Medical Tracker II (Reynolds Medical, Hertford UK) recorder. […] For QT interval analysis, the sample rate can be between 128 and 2000 samples per seconds. The preferred embodiment is the use of a sample rate of at least of at least 1000 samples per second. These digital recorders must also be compatible with a Holter playback system that can produce beat-to beat interval measurements. An example of this type of device is the Reynolds Medical LifeCard CF recorder (Reynolds Medical, Hertford, UK). An example of the compatible Holter playback system is the Reynolds Medical Pathfinder 700 series. […]
# Using the digitized file of the electrocardiogram, a QT interval analysis may be accomplished in the following manner: The onset of a Q-wave (Qb) may be defined and a cursor may be placed at this point. […] The data from the digital file may then be replayed at 60-times normal time, while the cursors on the Qb and Te points may be monitored for stability. […] The QT intervals may be measured for the entire AECG recording on a beat-to-beat basis. […]
# The peak of an R-wave may be detected and a third cursor may be placed (Rp). […]
# In the examples described herein QTc was calculated by removing a time-series of the QT and preceding R--R intervals to a high-speed computer with both a fast processor and adequate disk storage space. […]
smiles,measurement,setting,value
"COc1cc(N)c(Cl)cc1C(=O)NC1CCN(CCCOc2ccc(F)cc2)CC1OC (centres unmarked) [cisapride, Cisapride]",mean QTc interval,"QTc interval histogram of a single patient taking cisapride (FIG. 3), 24 hour AECG",440 ms
same,mean QTc,"composite curve of subjects on drug therapy (FIG. 4: subjects on cisapride), normal subjects 409 msec, ILQT 475 msec",430 ms
